The test concerns the target aryl hydrocarbon receptor (AhR) (Mus musculus (Mouse), UniProt P30561). Put plainly: AhR ligand screening: AhRE-luciferase reporter in transfected Hepa1 cells. In kind it is cell-based. Particulars: for Fold @ 1 nM: fold change of luciferase expression at 1 nM test compound relative to vehicle (0.1% DMSO); for Fold @ 100 nM: fold change of luciferase expression at 100 nM test compound relative to vehicle (0.1% DMSO); for Fold @ 10 uM: fold change of luciferase expression at 10 uM test compound relative to vehicle (0.1% DMSO); for Fold relative to benchmark @ 100 nM: luciferase expression at 100 nM test compound relative to 100 nM benchmark compound 11-cl-BBQ. The source says: The AhR is a ligand-activated transcription factor that dimerizes with ARNT to regulate gene expression, and genes that are regulated by AhR ligands have AhR response elements (AhRE) in their promotor regions.
Briefly, Hepa1 cells were transfected with a reporter construct consisting of AhRE linked to luciferase. The addition of AhR ligands to the transfected cells induces luciferase production that is directly proportional to the amount of AhR activation. We used this reporter system to identify novel compounds with AhR-activating properties. Transfected Hepa1 cells were plated at a density of 1×10^4 cells/well in 100 μL of cell culture media in 96 well plates and grown overnight. […] Following incubation with the compounds, the media was removed, and cells were harvested with lysis buffer. The lysates were transferred to opaque 96 well plates, where they were assayed well-by-well for luciferase activity by injection of luciferase assay substrate with a 2 sec mixing time and 15 sec integration period on a Tropix TR717 microplate luminometer. Data were expressed as fold induction of luciferase relative to vehicle (0.1% DMSO) treated cells.

Molecules are shown by their SMILES.

Sequence of aryl hydrocarbon receptor (AhR) (P30561 10-805): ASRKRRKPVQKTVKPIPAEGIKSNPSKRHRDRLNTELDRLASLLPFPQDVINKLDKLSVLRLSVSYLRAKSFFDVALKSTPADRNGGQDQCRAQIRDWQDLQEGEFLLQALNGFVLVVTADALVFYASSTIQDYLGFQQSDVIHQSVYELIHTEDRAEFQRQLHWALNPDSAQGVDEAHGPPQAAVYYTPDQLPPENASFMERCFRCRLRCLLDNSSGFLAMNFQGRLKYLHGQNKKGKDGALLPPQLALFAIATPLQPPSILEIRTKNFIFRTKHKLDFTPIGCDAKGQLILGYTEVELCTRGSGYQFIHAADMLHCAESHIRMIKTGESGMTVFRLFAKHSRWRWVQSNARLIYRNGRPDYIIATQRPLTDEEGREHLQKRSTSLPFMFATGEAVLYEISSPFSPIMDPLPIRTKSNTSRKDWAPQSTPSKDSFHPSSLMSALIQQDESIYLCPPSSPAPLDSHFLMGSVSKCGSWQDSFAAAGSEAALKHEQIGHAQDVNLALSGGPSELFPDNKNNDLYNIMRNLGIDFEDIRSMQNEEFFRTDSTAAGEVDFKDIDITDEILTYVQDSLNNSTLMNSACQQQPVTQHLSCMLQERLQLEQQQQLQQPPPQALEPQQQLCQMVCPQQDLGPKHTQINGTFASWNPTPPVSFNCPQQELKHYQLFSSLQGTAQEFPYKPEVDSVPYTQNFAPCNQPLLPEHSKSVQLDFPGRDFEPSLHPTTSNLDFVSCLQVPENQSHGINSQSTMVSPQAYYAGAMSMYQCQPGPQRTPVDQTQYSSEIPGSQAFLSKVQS
Sequence of aryl hydrocarbon receptor (AhR) (P53762 whole entry partner): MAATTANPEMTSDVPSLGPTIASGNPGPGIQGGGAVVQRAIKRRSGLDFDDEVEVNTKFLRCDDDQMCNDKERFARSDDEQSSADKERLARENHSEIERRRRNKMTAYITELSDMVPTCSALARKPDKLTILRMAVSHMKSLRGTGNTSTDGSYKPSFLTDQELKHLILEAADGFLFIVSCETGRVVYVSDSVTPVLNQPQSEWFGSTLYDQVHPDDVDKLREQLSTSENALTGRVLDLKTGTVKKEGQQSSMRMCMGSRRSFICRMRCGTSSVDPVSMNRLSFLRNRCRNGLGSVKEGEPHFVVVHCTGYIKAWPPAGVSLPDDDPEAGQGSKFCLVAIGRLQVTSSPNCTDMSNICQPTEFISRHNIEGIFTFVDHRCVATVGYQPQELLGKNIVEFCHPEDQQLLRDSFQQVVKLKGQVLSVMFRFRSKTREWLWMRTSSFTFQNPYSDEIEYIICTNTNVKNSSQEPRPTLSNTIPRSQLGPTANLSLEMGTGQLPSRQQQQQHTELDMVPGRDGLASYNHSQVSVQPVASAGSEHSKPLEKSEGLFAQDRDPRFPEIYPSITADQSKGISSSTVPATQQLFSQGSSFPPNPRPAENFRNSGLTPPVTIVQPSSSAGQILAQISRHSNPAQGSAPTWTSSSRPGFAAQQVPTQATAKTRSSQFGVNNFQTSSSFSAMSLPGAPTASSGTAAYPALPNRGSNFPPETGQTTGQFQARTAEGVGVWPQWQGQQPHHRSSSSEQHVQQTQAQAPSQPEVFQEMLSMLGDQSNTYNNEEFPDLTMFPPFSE

Consider `O=C(c1ccccc1)n1c(-c2cccc3ccccc23)nc2cc(Br)ccc21` [Compound 691], for which the “Fold @ 1 nM” value stood at 2 fold, the “Fold @ 100 nM” value is 26 fold, the “Fold @ 10 uM” value is reported as 34 fold and the “Fold relative to benchmark @ 100 nM” value came to 1 fold.
For `COc1ccc(-c2nc3cc(Cl)ccc3n2C(=O)c2ccc(F)c(F)c2)c2ccccc12` [Compound 645] the same measures were 1 fold, 1 fold, 15 fold and 0.11 fold.
The like results for `O=C(c1ccc2nc(-c3cccc4ccccc34)n(S(=O)(=O)c3ccc4ccccc4c3)c2c1)N1CCOCC1` [Compound 1389] were, in that order, 1 fold, 1 fold, 3 fold and 0.03 fold.
Consider `O=c1c2cccc3cccc(c32)c2cc3ccc(Cl)cc3n12` [Compound 405, 7-chloro-10-azapentacyclo[10.7.1.0^2,10.0^4,9.0^16,20]icosa 1(19),2,4(9),5,7,12,14,16(20),17-nonaen-11-one], for which the “Fold @ 1 nM” value stood at 8 fold, the “Fold @ 100 nM” value came to 31 fold and the “Fold relative to benchmark @ 100 nM” value is 0.78 fold.
As for `Fc1ccc(Cn2c(-c3cccc4ccccc34)nc3ccc(Cl)cc32)cc1F` [Compound 888], the “Fold @ 1 nM” value is recorded as 1 fold, the “Fold @ 100 nM” value is 1 fold, the “Fold @ 10 uM” value is 9 fold and the “Fold relative to benchmark @ 100 nM” value is 0.02 fold.
`O=C(c1ccc(F)c(F)c1)n1c(-c2cccc3c2CCCC3)nc2cc(Cl)ccc21` [Compound 779]: the “Fold @ 1 nM” value was found to be 1 fold, the “Fold @ 100 nM” value is given as 1 fold, the “Fold @ 10 uM” value is listed as 5 fold and the “Fold relative to benchmark @ 100 nM” value stood at 0.04 fold.
With `O=C(c1ccc2c(c1)nc(-c1cccc3ccccc13)n2S(=O)(=O)c1ccc2ccccc2c1)N1CCCCC1` [Compound 1340], the “Fold @ 1 nM” value is reported as 1 fold, the “Fold @ 100 nM” value is given as 1 fold, the “Fold @ 10 uM” value came to 8 fold and the “Fold relative to benchmark @ 100 nM” value was found to be 0.03 fold.
Regarding `Cc1cccc(-c2nc3cc(Cl)ccc3n2C(=O)c2ccc(F)c(F)c2)c1Cl` [Compound 791], the “Fold @ 1 nM” value came out at 1 fold, the “Fold @ 100 nM” value amounted to 1 fold, the “Fold @ 10 uM” value was found to be 26 fold and the “Fold relative to benchmark @ 100 nM” value worked out at 0.04 fold.
Turning to `COc1ccc2c(c1)nc(-c1cccc3ccccc13)n2C(=O)c1ccccc1` [Compound 639], the “Fold @ 1 nM” value is reported as 1 fold, the “Fold @ 100 nM” value was found to be 1 fold, the “Fold @ 10 uM” value was 5 fold and the “Fold relative to benchmark @ 100 nM” value is listed as 0.11 fold.
For `CC(C)(C)c1cccc(-c2nc3cc(Cl)ccc3n2C(=O)c2ccc(F)c(F)c2)c1` [Compound 787], the “Fold @ 1 nM” value stood at 1 fold, the “Fold @ 100 nM” value worked out at 1 fold, the “Fold @ 10 uM” value stood at 4 fold and the “Fold relative to benchmark @ 100 nM” value was determined as 0.04 fold.
On to `O=C(c1ccc(F)c(F)c1)n1c(-c2cccc(C(F)(F)F)c2)nc2cc(Cl)ccc21` [Compound 788], for which the “Fold @ 1 nM” value is 1 fold, the “Fold @ 100 nM” value was 2 fold, the “Fold @ 10 uM” value is 19 fold and the “Fold relative to benchmark @ 100 nM” value came to 0.08 fold.
For `CN1CCN(C(=O)c2ccc3c(c2)nc(-c2cccc4ccccc24)n3Cc2ccc(F)c(F)c2)CC1` [Compound 1364] the same measures were 1 fold, 1 fold, 3 fold and 0.03 fold.
The like results for `COc1ccccc1S(=O)(=O)n1c(-c2cccc3ccccc23)nc2ccc(C(=O)N3CCCCC3)cc21` [Compound 1391] were, in that order, 1 fold, 1 fold, 1 fold and 0.03 fold.
